One data set has as its target T1, human VMAT1 transporter (Homo sapiens, UniProt P54219).
T1 construct: expressed in transfected cells
T1 sequence (P54219 1-525): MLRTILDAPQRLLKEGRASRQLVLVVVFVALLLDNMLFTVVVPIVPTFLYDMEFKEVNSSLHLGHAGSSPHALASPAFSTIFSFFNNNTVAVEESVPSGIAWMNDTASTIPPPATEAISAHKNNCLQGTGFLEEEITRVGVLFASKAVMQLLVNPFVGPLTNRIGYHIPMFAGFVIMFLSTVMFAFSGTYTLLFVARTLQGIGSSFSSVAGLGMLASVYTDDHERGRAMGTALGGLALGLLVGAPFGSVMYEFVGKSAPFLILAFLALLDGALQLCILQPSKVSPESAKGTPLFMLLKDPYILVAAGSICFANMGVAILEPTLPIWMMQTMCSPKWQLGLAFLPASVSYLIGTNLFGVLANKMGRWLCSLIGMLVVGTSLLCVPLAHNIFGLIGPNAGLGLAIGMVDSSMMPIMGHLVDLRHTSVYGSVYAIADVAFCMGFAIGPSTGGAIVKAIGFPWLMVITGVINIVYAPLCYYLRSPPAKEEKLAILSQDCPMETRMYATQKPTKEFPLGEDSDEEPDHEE
In words: Uptake in cells expressing VMAT1. Type of data set: cell-based. As to conditions: TBZ, VBZ and metabolites at concentrations up to 10 μM.

Another data set addresses T2, VMAT2 (Homo sapiens, UniProt Q05940).
T2 construct: from tissue; host or cells: human platelets (homogenates)
In words: Inhibition of [3H]-DHTBZ binding to human platelets.

The test system of data set [1] is more than 80 targets (GPCRs, cell-surface monoamine transporters, ion channels including HERG). Put plainly: Cerep multi-target activity screen. To be noted: receptors, monoamine transporters, and ion channels.
The nature of data set [2]: Phase 1 open-label one-sequence crossover drug-interaction study: plasma pharmacokinetics of NBI-98854 and metabolites with and without rifampin. The format is in vivo, human. As to conditions: for half-life: read-out: Mean t1/2 (converted); for AUC(0-inf) / Cmax / MRT / AUC(0-t) / Tlag / t1/2: Mean (SD); for AUC(0-t): plasma. As for the experimental part: (§1) Subjects received a single dose of 80 mg valbenazine tosylate on Days 1 and 11 between 0800 and 1000 hours. In addition, subjects received 600 mg rifampin (300 mg×2 capsules) once daily on Days 5 (after collection of the 96-hour PK sample) through 14 between 0830 and 1030 hours. Subjects were required to fast overnight before receiving the study drugs (valbenazine tosylate and rifampin). Subjects were discharged from the study center on Day 15 (final study day or upon early termination) after all safety evaluations and study assessments had been completed.
Safety was assessed throughout the study.
NBI-98854 40 mg capsules were administered orally. The dose of NBI-98854 was based on ditosylate salt (dose expressed as free base). Subjects received a single dose of NBI-98854 80 mg (as two 40 mg capsules) twice during the study, on Days 1 and 11.
Rifampin 300 mg capsules were administered orally. Subjects received a single dose of rifampin 600 mg (as two 300 mg capsules) on Days 5 (after collection of the 96 hour NBI-98854 PK sample) through 14 between 0830 and 1030 hours.
The following plasma PK parameters were calculated only for NBI-98854: • Apparent systemic clearance after oral administration (CL/F) • Apparent volume of distribution during the terminal phase after oral administration (Vz/F)
The last significant figure was rounded up if the digit to the right of it was >5, and was rounded down if the digit to the right of it was […].
The last significant figure was rounded up if the digit to the right of it was ≥5, and was rounded down if the digit to the right of it was ≤4.
(§2) An analysis of variance (ANOVA) model was used to compare AUC0-∞ and Cmax for NBI-98854 administered with rifampin (“test”) versus AUC0-∞ and Cmax for NBI-98854 alone (“reference”). The PK parameters for metabolites of NBI-98854 and rifampin were also evaluated. Safety data were summarized using descriptive statistics.

Data set [3] can be described thus: Ptosis, in vivo surrogate measure of pharmacological effect.
The nature of data set [4]: Phase 1 drug-interaction study: safety, treatment-emergent adverse events. The format is in vivo, human. To be noted: Safety Analysis Set, healthy subjects, by treatment period. On the procedure: as §1, §2
For a further data set, the target named is Serotonin 5-HT7 (Homo sapiens, UniProt P34969). In words: Cerep screen, Serotonin 5-HT7. As to conditions: 1 or 10 μM final concentration; n=2.
The next data set deals with T3, Serotonin 5-HT1A (Homo sapiens, UniProt P08908).
T3 sequence (P08908 1-422): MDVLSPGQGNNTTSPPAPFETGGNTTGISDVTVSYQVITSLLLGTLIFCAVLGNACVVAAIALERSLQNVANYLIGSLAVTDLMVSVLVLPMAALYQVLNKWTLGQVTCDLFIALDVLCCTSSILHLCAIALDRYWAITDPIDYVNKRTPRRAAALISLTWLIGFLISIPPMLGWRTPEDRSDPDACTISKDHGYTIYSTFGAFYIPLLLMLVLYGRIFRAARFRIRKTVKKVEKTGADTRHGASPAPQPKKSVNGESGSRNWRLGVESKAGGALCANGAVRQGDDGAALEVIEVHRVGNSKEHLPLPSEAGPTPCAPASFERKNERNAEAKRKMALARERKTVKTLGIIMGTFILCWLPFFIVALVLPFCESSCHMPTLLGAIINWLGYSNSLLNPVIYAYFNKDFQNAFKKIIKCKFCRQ
Put plainly: Cerep screen, Serotonin 5-HT1A. To be noted: 1 or 10 μM final concentration; n=2.

The mark [5] stands for this setting: both sexes, human, oral, plasma metabolite NBI-136110, NBI-98854 80 mg + rifampin 600 mg, N = 11.
Setting [6] is: both sexes, human, oral, plasma metabolite NBI-136110, NBI-98854 80 mg alone, N = 11.
Setting [7] is: plasma metabolite NBI-136110, NBI-98854 80 mg + rifampin 600 mg, N = 11.
[8] abbreviates: plasma metabolite NBI-136110, NBI-98854 80 mg alone, N = 11.

Entries after “also recorded” stand apart in the source; their conditions may differ. Where two headings read alike, the source gives them in different places.

T2 sequence (Q05940 whole entry): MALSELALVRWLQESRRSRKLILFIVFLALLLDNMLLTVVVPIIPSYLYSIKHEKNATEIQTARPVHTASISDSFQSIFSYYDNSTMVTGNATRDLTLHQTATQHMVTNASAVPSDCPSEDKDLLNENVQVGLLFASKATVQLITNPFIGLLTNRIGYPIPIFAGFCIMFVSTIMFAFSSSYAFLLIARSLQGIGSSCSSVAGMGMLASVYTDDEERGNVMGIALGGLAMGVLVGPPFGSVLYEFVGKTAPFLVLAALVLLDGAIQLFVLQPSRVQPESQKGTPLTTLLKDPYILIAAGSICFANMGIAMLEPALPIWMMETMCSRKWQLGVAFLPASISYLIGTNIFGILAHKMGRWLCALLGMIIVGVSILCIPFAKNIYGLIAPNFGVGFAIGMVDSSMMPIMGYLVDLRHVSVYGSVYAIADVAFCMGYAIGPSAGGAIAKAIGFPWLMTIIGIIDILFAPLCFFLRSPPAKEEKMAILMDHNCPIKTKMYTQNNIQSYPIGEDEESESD
Sequence of Serotonin 5-HT7 (P34969 whole entry): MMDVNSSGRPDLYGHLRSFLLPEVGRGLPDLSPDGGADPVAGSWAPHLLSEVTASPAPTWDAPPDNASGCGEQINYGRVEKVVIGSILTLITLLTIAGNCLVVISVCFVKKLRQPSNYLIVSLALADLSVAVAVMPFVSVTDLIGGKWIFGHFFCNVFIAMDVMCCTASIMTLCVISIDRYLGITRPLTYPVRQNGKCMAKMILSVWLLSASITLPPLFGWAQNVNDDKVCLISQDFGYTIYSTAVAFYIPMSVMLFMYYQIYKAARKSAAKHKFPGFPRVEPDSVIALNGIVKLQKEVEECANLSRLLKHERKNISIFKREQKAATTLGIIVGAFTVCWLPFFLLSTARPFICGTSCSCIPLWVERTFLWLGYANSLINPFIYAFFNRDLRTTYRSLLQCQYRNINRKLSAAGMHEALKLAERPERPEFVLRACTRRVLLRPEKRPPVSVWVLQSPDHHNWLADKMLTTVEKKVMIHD

A word on the AUC(0-inf): it is the area under the concentration-time curve extrapolated to infinity. As a reminder, the Cmax is the peak of the concentration-time curve. As usually defined, the MRT is a mean duration of stay, worked out from the concentration-time curve. Take `COc1cc2c(cc1OC)[C@H]1C[C@@H](OC(=O)[C@@H](N)C(C)(C)O)[C@H](CC(C)C)CN1CC2` [NBI-136110]: the “inhibition of uptake through VMAT1” value on human VMAT1 transporter is listed as “no significant inhibitory activity; also recorded: no significant effect”. Also, the “Affinity Relative to R,R,R-DHTBZ” value at VMAT2 stood at 67. In addition, the “pKi mean (SEM)” value at VMAT2 (n=4) was 6.65 (0.04). Besides, the “affinity for more than 80 binding sites” value in data set [1] is “little to no affinity”. For the same compound, the half-life was 27 h in data set [2] (both sexes, human, oral, 80 mg, plasma analyte, NBI-98854 alone) and 12 h in data set [2] (both sexes, human, oral, plasma analyte, NBI-98854 administered with rifampin). The Tmax is 3 h in data set [2] (both sexes, human, oral, 80 mg, plasma analyte, NBI-98854 alone, read-out: Median tmax); 1.5 h in data set [2] (both sexes, human, oral, plasma analyte, NBI-98854 in combination with rifampin vs NBI-98854 alone, read-out: Median tmax shorter); 1.5 (0.75, 2.1) hr in data set [2] (plasma metabolite NBI-136110, NBI-98854 80 mg + rifampin 600 mg, N = 11, Median (min, max)); 3.0 (2.0, 8.0) hr in data set [2] (plasma metabolite NBI-136110, NBI-98854 80 mg alone, N = 11, Median (min, max)). In addition, the figures for the AUC(0-inf) in data set [2] (setting [5]) and in data set [2] (setting [6]) were 663 ng·h/mL and 2080 ng·h/mL, respectively. The figures for the Cmax in data set [2] (setting [5]) and in data set [2] (setting [6]) were 81.5 ng/mL and 59.8 ng/mL, respectively. Also, the MRT amounted to 12 h in data set [2] (setting [5]) and 39 h in data set [2] (setting [6]). Further, the AUC(0-t) in data set [2] (both sexes, human, oral, 80 mg, plasma metabolite NBI-136110, NBI-98854 80 mg alone, N = 11, read-out: AUC0-24) worked out at 963 ng·h/mL; in data set [2] (both sexes, human, oral, 80 mg, plasma metabolite NBI-136110, NBI-98854 80 mg alone, N = 11, read-out: AUC0-tlast) it was 1890 ng·h/mL; in data set [2] (both sexes, human, oral, plasma metabolite NBI-136110, NBI-98854 80 mg + rifampin 600 mg, N = 11, read-out: AUC0-24) it was 554 ng·h/mL; in data set [2] (both sexes, human, oral, plasma metabolite NBI-136110, NBI-98854 80 mg + rifampin 600 mg, N = 11, read-out: AUC0-tlast), 658 ng·h/mL. For the same compound, the “Mean t1/2 shorter” value in data set [2] (plasma analyte, NBI-98854 in combination with rifampin vs NBI-98854 alone) is recorded as “approximately 40%”. For the same compound, the “decrease in AUC0-∞” value in data set [2] (plasma analyte, NBI-98854 plus rifampin compared with NBI-98854 alone) was “approximately 70%”. In addition, the Tlag in data set [2] (setting [7]) is reported as 0.16 (0.13) hr; in data set [2] (setting [8]), 0.23 (0.14) hr. Further, the values for the t1/2 in data set [2] (setting [7]) and in data set [2] (setting [8]) were 12 (3.0) hr and 27 (6.7) hr, respectively.

As for `COC(=O)[C@H]1[C@H]2C[C@@H]3c4[nH]c5cc(OC)ccc5c4CCN3C[C@H]2C[C@@H](OC(=O)c2cc(OC)c(OC)c(OC)c2)[C@@H]1OC` [reserpine, reference compound], at human VMAT1 transporter, the “inhibition of uptake through VMAT1” value is given as “substantially inhibited uptake”.

As to `COc1cc2c(cc1OC)C1CC(=O)C(CC(C)C)CN1CC2` (stereo not drawn) [TBZ, reference compound], the “inhibition of uptake through VMAT1” value on human VMAT1 transporter is recorded as “no significant inhibitory activity; also recorded: no significant effect”. In data set [3], the induction of ptosis entry is “induced ptosis in an equivalent manner”.

Consider `CO[C@H]1/C=C/O[C@@]2(C)Oc3c(C)c(O)c4c(O)c(c(/C=N/N5CCN(C)CC5)c(O)c4c3C2=O)NC(=O)/C(C)=C\C=C\[C@H](C)[C@H](O)[C@@H](C)[C@@H](O)[C@@H](C)[C@H](OC(C)=O)[C@@H]1C` [Rifampin, reference compound], for which, in data set [4], the “Subjects who experienced a TEAE: Overall” value was 12 (100) n (%), the “TEAE: Abdominal pain” value was 0 n (%), the “TEAE: Abdominal pain upper” value was 1 (8.3) n (%) and the “TEAE: Arthropod bite” value is recorded as 0 n (%). Moreover, in data set [4], the “TEAE: Chromaturia” value is 12 (100) n (%), the “TEAE: Headache” value is recorded as 0 n (%), the “TEAE: Hypoaesthesia” value is given as 0 n (%) and the “TEAE: Non-cardiac chest pain” value is on record as 1 (8.3) n (%). Moreover, in data set [4], the “TEAE: Paraesthesia” value was 1 (8.3) n (%) and the “TEAE: Vessel puncture site haemorrhage” value was 0 n (%). Besides, in data set [4] (listed as rifampin), the “TEAE: Chromaturia” value is recorded as 12 n (%).

On to `COc1cc2c(cc1OC)[C@H]1C[C@H](O)[C@H](CC(C)C)CN1CC2` [S,R,R-DHTBZ, reference compound], for which the “percent of control specific binding, Serotonin 5-HT7” value at Serotonin 5-HT7 came out at 80%. In addition, the “percent of control specific binding, Serotonin 5-HT1A” value at Serotonin 5-HT1A came to 69%.

Source of the values: patent US10912771B1, “Methods for the administration of certain VMAT2 inhibitors” (Neurocrine Biosciences, Inc., priority 2017, dated 2021).
